According to ChEMBL document CHEMBL1126991, “Isatin oximes - A novel series of bioavailable non-NMDA antagonists” (Bioorg Med Chem Lett, 1993):

Assays:
Mus musculus [1] = organism: Mus musculus; experiment: Tested for the effective dosage required for the protection against AMPA induced seizures; assay type: functional
Mus musculus [2] = organism: Mus musculus; experiment: Tested for the [Ca2+] i induced elevation using cultured mouse cortical neurons, exposed to 5 uM AMPA for 4 minutes; assay type: functional
[3] = biological target: Glutamate receptor ionotropic, AMPA (Rattus norvegicus, UniProt P19490+P19491+P19492+P19493); experiment: Tested for the inhibition of binding of [3H]AMPA radioligand to Ionotropic glutamate receptor AMPA to cortical membranes from rat brain
Rattus norvegicus [4] = organism: Rattus norvegicus; experiment: Tested for the ability to inhibit AMPA (5 uM) induced depolarizations in rat cortical wedge preparation; assay type: functional
Rattus norvegicus [5] = organism: Rattus norvegicus; experiment: Tested for the ability to inhibit NMDA (20 uM) induced depolarizations in rat cortical wedge preparation; assay type: functional
Mus musculus [6] = organism: Mus musculus; experiment: Tested for the [Ca2+] i induced elevation using cultured mouse cortical neurons, exposed to 50 uM NMDA for 4 minutes; assay type: functional
[7] = biological target: Glutamate receptor ionotropic, kainate
Description: Tested for the inhibition of binding of [3H]kainate radioligand to Ionotropic glutamate receptor kainate of cortical membranes from rat brain

For N#Cc1cc2c(cc1[N+](=O)[O-])=NC(=O)C(=O)N=2, the ED50 (Mus musculus [1]) was 10 mg/kg.

With O=Nc1c(O)[nH]c2c3c(c([N+](=O)[O-])cc12)CCCC3 the IC50 (Mus musculus [2]) was over 30 µM, the IC50 [3] was 8.1 µM and the ED50 (Mus musculus [1]) was over 30 mg/kg. The IC50 (Rattus norvegicus [4]) was over 30 µM, the IC50 (Rattus norvegicus [5]) was over 30 µM and the IC50 (Mus musculus [6]) was over 30 µM. It also gave an IC50 [7] of over 30 µM.

With NS(=O)(=O)c1cccc2c1c([N+](=O)[O-])cc1nc(O)c(O)nc12 [NBQX] the IC50 (Mus musculus [2]) was 0.3 µM, the ED50 (Mus musculus [1]) was 10 mg/kg and the IC50 (Rattus norvegicus [4]) was 0.3 µM. The IC50 (Rattus norvegicus [5]) was over 30 µM and the IC50 (Mus musculus [6]) was over 30 µM.

With CNS(=O)(=O)c1cc2c(N=O)c(O)[nH]c2c2c1CCCC2 the IC50 (Mus musculus [2]) was 11 µM, the IC50 [3] was 2.8 µM and the ED50 (Mus musculus [1]) was 30 mg/kg. For the same compound, the IC50 (Rattus norvegicus [4]) was 5.2 µM, the IC50 (Rattus norvegicus [5]) was over 30 µM and the IC50 (Mus musculus [6]) was over 30 µM. For the same compound, the IC50 [7] was 30 µM.

O=C1Nc2c(ccc3c2CCCC3)/C1=N/O was tested, and the IC50 [3] was over 30 µM, the ED50 (Mus musculus [1]) was over 30 mg/kg and the IC50 [7] was over 30 µM.

With CN(C)S(=O)(=O)c1cc2c(N=O)c(O)[nH]c2c2c1CCCC2 the IC50 (Mus musculus [2]) was 5.4 µM, the IC50 [3] was 1.8 µM and the ED50 (Mus musculus [1]) was 3 mg/kg. For the same compound, the IC50 (Rattus norvegicus [4]) was 3.5 µM, the IC50 (Rattus norvegicus [5]) was over 30 µM and the IC50 (Mus musculus [6]) was over 30 µM. For the same compound, the IC50 [7] was 27 µM.

Work on NS(=O)(=O)c1cc2c(N=O)c(O)[nH]c2c2c1CCCC2 yielded an IC50 (Mus musculus [2]) of 3.5 µM, an IC50 [3] of 2.8 µM and an ED50 (Mus musculus [1]) of over 30 mg/kg. The IC50 (Rattus norvegicus [4]) was 2.5 µM, the IC50 (Rattus norvegicus [5]) was over 30 µM and the IC50 (Mus musculus [6]) was over 30 µM. The IC50 [7] was 24.5 µM.
